Assay results from US12636366B2, “Ruthenium (II) complexes and conjugates thereof for use as photosensitizer agent in photodynamic therapy” (Paris Sciences et Lettres, priority 2019, dated 2026).

What was measured:
Cys-34 residue of HSA = Cys-34 residue of HSA (Homo sapiens, UniProt P02768)
Experimental: UV-visible (UV-Vis) spectrophotometry was monitored on an Agilent Cary 8454 diode array spectrophotometer in the wavelength range between 190 and 1100 nm.
Interaction of complex 12 at the Cys-34 residue of HSA was investigated spectrophotometrically via the dithiodipyridine (DTDP) method described previously (Pichler et al., 2013). […] A first series of UV-Vis spectra (a) were recorded before addition of 110 μM DTDP and a second series of UV-Vis spectra (b) were recorded after addition of 110 μM DTDP and after another 40 min waiting. […] Blank experiment with compound 13 was carried out as well as a control experiment. The effect of protein unfolding on the thiol binding of complex 12 was studied by the addition of 0.5% (m/m) SDS to the protein prior to its reaction with the complex. This experiment allows to determine the amount of free Cys-34 residue of HSA as a function of the added equivalent of the complexes.

[1] = cited from earlier work

Cys-34 residue of HSA, sequence (P02768 25-609): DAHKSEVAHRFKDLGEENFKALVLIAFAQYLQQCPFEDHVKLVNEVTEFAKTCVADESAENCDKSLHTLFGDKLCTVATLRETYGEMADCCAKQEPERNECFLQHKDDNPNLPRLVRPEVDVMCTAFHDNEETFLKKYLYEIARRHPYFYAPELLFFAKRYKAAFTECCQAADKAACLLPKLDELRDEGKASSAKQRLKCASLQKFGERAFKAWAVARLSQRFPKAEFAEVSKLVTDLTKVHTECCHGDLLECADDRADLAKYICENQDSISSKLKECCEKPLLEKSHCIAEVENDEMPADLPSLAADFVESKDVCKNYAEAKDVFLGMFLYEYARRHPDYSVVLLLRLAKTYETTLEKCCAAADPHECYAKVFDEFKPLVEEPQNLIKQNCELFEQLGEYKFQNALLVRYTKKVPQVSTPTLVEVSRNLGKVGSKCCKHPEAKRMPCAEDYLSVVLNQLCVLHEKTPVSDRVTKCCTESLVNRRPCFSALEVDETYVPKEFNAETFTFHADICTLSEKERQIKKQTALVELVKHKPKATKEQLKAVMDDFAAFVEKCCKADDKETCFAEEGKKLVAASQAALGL

In the case of `Cc1ccnc(-c2cc(C)ccn2)c1.[Cl-].[Cl-].[Ru+2].c1ccc(-c2ccnc3c2ccc2c(-c4ccccc4)ccnc23)cc1.c1ccc(-c2ccnc3c2ccc2c(-c4ccccc4)ccnc23)cc1` [Compound 13, (4,4′-Dimethyl-2,2′-bipyridine)bis(4,7-diphenyl-1,10-phenanthroline)ruthenium(II) dichlorine], the “Interaction with Cys-34 thiol group (free thiol content) of native HSA” value (Cys-34 residue of HSA; 133 μM HSA, 0-120 μM complex, 3 h or 30 min, pH=7.00 (PBS)) is reported as “affects barely the quantity of free thiol groups”.

For `[Cl-].[Cl-].[Ru+2].c1ccc(-c2ccccn2)nc1.c1ccc(-c2ccccn2)nc1.c1ccc(-c2ccccn2)nc1` [[Ru(bipy)3]Cl2], the “Φ(1O2) of reference in D2O / water” value ([1]; solution in D2O / water) is given as 0.22.

In the case of `O=C1C=Cc2cccc3cccc1c23` [phenalenone], the “Φ(1O2) of reference in CH3CN” value ([1]; solution in CH3CN) is listed as 0.95.

For “[Ru(bphen)2(Me-maleimidemethyl)](Cl)2 [Compound 12]”, the “Interaction with Cys-34 thiol group of unfolded HSA” value (Cys-34 residue of HSA; 0.5% SDS as denaturing agent, 0.5 h incubation) was “nearly quantitative interaction” and the “Effect of incubation time on Cys-34 interaction” value (Cys-34 residue of HSA; 3 h versus 30 min incubation with HSA) was “did not result in remarkable differences”.
